Article PMC5241706, “Biochemical and Structural Characterization of Selective Allosteric Inhibitors of the Plasmodium falciparum Drug Target, Prolyl-tRNA-synthetase” (ACS Infectious Diseases, 2016)

Experiments:
[1] = tested on: Plasmodium falciparum strain 3D7; test: Plasmodium falciparum growth inhibition, SYBR green fluorescence; format: cell-based; conditions: 3D7, growth inhibition, read-out: Pf (3D7) EC50
PfProRS [2] = target: T1, PfProRS (Plasmodium falciparum, UniProt Q8I5R7); test: biochemical; format: biochemical; conditions: for PfProRS activity in words: SAR text to Table 1; for IC50: read-out: Pf ProRS IC50
T1 construct: B2, AA7–746 (minus 6 amino acids, or 99% of the ORF); made in house; host or cells: E. coli BL21(DE3)R3 Rosetta Oxford
T1 sequence (Q8I5R7 7-746): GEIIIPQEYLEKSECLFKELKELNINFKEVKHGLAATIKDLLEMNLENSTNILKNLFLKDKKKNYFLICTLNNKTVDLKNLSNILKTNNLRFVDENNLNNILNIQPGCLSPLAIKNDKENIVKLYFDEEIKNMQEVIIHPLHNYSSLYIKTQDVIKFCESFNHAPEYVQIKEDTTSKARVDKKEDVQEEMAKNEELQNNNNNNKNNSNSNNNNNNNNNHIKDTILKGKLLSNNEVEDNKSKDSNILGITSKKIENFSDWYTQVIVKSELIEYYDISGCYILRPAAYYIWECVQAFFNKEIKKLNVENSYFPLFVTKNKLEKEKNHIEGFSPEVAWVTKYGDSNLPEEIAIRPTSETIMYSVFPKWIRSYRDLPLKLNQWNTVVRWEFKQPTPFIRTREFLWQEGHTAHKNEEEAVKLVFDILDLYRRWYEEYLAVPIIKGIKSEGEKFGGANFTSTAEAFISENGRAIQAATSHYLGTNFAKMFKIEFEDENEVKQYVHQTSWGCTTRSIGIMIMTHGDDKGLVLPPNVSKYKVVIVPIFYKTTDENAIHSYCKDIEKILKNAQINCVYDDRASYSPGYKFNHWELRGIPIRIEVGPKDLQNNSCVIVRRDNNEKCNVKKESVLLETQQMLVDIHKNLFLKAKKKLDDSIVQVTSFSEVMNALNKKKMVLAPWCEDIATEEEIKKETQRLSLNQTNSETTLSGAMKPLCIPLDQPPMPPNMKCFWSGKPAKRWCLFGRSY

PfProRS [3] = target: T1, PfProRS; test: aminoacylation assay ([3H]-L-proline incorporation into tRNA); format: biochemical
[4] = tested on: isolated 3D7 trophozoites (pHi); test: pH assay, BCECF-loaded isolated trophozoites; conditions: TCMDC-124506 5 μM; KAE609 50 nM
PfProRS [5] = target: T1, PfProRS; test: ATP consumption assay with proline or ATP varied (competition); format: biochemical; conditions: from IC50 vs [ATP] fit

| SMILES | IC50 (PfProRS [2]) [µM] | EC50 [1] [µM] | also measured |
| --- | --- | --- | --- |
| Cn1nc(C(F)(F)F)c(Br)c1NC(=O)Nc1ccc(F)cc1 [Compound 11, 1-[4-bromo-2-methyl-5-(trifluoromethyl)pyrazol-3-yl]-3-(4-fluorophenyl)urea] | > 50 | 16 | PfProRS activity in words (PfProRS [2]): inactive |
| Cn1nc(C(F)(F)F)cc1NC(=O)Nc1ccc(F)cc1 [Compound 10, 1-(4-fluorophenyl)-3-(1-methyl-3-(trifluoromethyl)-1H-pyrazol-5-yl)urea] | > 50 | 46 | PfProRS activity in words (PfProRS [2]): inactive |
| Cn1nc(C(F)(F)F)c(-c2ccc(F)cc2)c1NC(=O)Nc1ccc(F)cc1F [Compound 3] | 2.5 | 0.7 |  |
| CC(C)(C)OC(=O)N1CCC[C@@H](O)[C@@H]1CC(=O)Cn1cnc2cc(Br)c(Cl)cc2c1=O [N-Boc-halofuginone] |  |  | IC50 (PfProRS [3]; Hill slope = 1, Figure S2, read-out: IC50, [3H]-L-proline aminoacylation incorporation assay): > 3 µM; inhibition of aminoacylation (PfProRS [3]; at the highest concentrations tested): < 20% |
| C[C@H]1Cc2c([nH]c3cc(Cl)c(F)cc23)[C@@]2(N1)C(=O)Nc1ccc(Cl)cc12 [KAE609, reference compound] |  |  | effect on parasite cytosolic pH (pHi) [4]: caused an increase in pHi |
| Cn1nc(C(F)(F)F)c(-c2ccc(F)cc2)c1N [Compound 2] | > 50 | 5 | PfProRS activity in words (PfProRS [2]): inactive |
| Cn1nc(C(F)(F)F)c(-c2cccc(C(F)(F)F)c2)c1NC(=O)Nc1ccc(F)cc1 [Compound 17] | > 50 | 0.9 |  |
| Cn1nc(C(F)(F)F)c(-c2cccc(CNS(C)(=O)=O)c2)c1NC(=O)Nc1ccc(F)cc1 [Compound 16] | > 50 | 10 | PfProRS activity in words (PfProRS [2]): inactive |
| Cn1nc(C(F)(F)F)c(-c2ccc(F)cc2)c1NC(=O)Nc1ccnc(N2CCOCC2)c1 [Compound 6] | > 50 | > 50 |  |
| Nc1ncnc2c1ncn2[C@@H]1O[C@H](COP(=O)(O)OP(=O)(O)OP(=O)(O)O)[C@@H](O)[C@H]1O [ATP] |  |  | Km (PfProRS [5]): 6.51 ± 1.84 µM |
| Cn1nc(C(F)(F)F)c(-c2cccc(CCO)c2)c1NC(=O)Nc1ccc(F)cc1 [Compound 15] | 13 | 4 |  |

More lines, main results first:

| IC50 (PfProRS [2]) [µM] | SMILES | EC50 [1] [µM] | also measured |
| --- | --- | --- | --- |
| > 50 | Cn1ncc(-c2ccc(F)cc2)c1NC(=O)Nc1ccc(F)cc1 [Compound 18] | 27 |  |
| > 50 | NC(=O)Cn1nc(C(F)(F)F)c(-c2ccc(F)cc2)c1NC(=O)Nc1ccc(F)cc1 [Compound 9] | > 50 |  |
| 14 | Cn1nc(C(N)=O)c(-c2ccc(F)cc2)c1NC(=O)Nc1ccc(F)cc1 [Compound 20] | > 50 |  |
| 6 | Cn1nc(CC#N)c(-c2ccc(F)cc2)c1NC(=O)Nc1ccc(F)cc1 [Compound 23] | 4 |  |
| 5 | Cn1nc(C#N)c(-c2ccc(F)cc2)c1NC(=O)Nc1ccc(F)cc1 [Compound 22] | 0.6 |  |
| > 50 | O=C(Nc1ccc(F)cc1)Nc1c(-c2ccc(F)cc2)c(C(F)(F)F)nn1CCO [Compound 8] | > 50 |  |
| 3 | Cn1nc(CCN2CCOCC2)c(-c2ccc(F)cc2)c1NC(=O)Nc1ccc(F)cc1 [Compound 26] | 10 |  |
| > 50 | O=C(Nc1ccc(F)cc1)Nc1[nH]nc(C(F)(F)F)c1-c1ccc(F)cc1 [Compound 7] | > 50 | PfProRS activity in words (PfProRS [2]): inactive |
| 9 | Cn1nc(CCC#N)c(-c2ccc(F)cc2)c1NC(=O)Nc1ccc(F)cc1 [Compound 24] | 6 |  |
| 18 | Cn1nc(CCO)c(-c2ccc(F)cc2)c1NC(=O)Nc1ccc(F)cc1 [Compound 19] | 20 |  |
| > 50 | COc1ccc(NC(=O)Nc2c(-c3ccc(F)cc3)c(C(F)(F)F)nn2C)cc1 [Compound 5] | > 50 |  |
| 8 | Cn1nc(CCC(N)=O)c(-c2ccc(F)cc2)c1NC(=O)Nc1ccc(F)cc1 [Compound 21] | > 50 |  |
